# Patent publication US20180334453A1, “ISOINDOLINE DERIVATIVES” (VIIV HEALTHCARE UK LIMITED, priority 2015, published 2018)
# System: HIV
# Assay: MT4 assay (anti-HIV activity)
# Format: cell-based
# Conditions: HTLV-1 transformed cell line MT-4; luciferase activity measured 96 hours later (cell titer glo); 10 point dose response
# Protocol: Antiviral HIV activity and cytotoxicity values for compounds of the invention from Table 1 were measured in parallel in the HTLV-1 transformed cell line MT-4 based on the method previously described (Hazen et al., 2007, In vitro antiviral activity of the novel, tyrosyl-based human immunodeficiency virus (HIV) type 1 protease inhibitor brecanavir (GW640385) in combination with other antiretrovirals and against a panel of protease inhibitor-resistant HIV (Hazen et al., “In vitro antiviral activity of the novel, tyrosyl-based human immunodeficiency virus (HIV) type 1 protease inhibitor brecanavir (GW640385) in combination with other antiretrovirals and against a panel of protease inhibitor-resistant HIV”, Antimicrob. Agents Chemother. 2007, 51: 3147-3154; and Pauwels et al., “Sensitive and rapid assay on MT-4 cells for the detection of antiviral compounds against the AIDS virus”, J. of Virological Methods 1987, 16: 171-185).
# Luciferase activity was measured 96 hours later by adding a cell titer glo (Promega, Madison, Wis.). Percent inhibition of cell protection data was plotted relative to no compound control. Under the same condition, cytotoxicity of the compounds was determined using cell titer Glo™ (Promega, Madison, Wis.). IC50 s were determined from a 10 point dose response curve using 3-4-fold serial dilution for each compound, which spans a concentration range >1000 fold.
# These values are plotted against the molar compound concentrations using the standard four parameter logistic equation:
# y=((Vmax*x̂n)/(K̂n+x̂n))+Y2
# Y2=minimum y n=slope factor
# Vmax=maximum y x=compound concentration [M]
row,SMILES,IC50
1,"CCO[C@H](C(=O)O)c1c(C)c2c(c(C)c1-c1cc(F)c3c(c1C)CCCO3)CN(C(=O)c1cccc(F)c1)C2 (atropisomer, axis not shown; (M)) [Example 1, (2S)(M)-2-ethoxy-2-((R)-6-(8-fluoro-5-methylchroman-6-yl)-2-(3-fluorobenzoyl)-4,7-dimethylisoindolin-5-yl)acetic Acid]",145 nM
2,"Cc1c(-c2c([C@H](OC(C)(C)C)C(=O)O)c(C(F)(F)F)c3c(c2C(F)(F)F)CN(C(=O)c2cccc(F)c2)C3)cc(F)c2c1CCCO2 (atropisomer, axis not shown; (M)) [Example 4, (2S)(M)-2-(tert-butoxy)-2-(6-(8-fluoro-5-methylchroman-6-yl)-2-(3-fluorobenzoyl)-4,7-bisarifluoromethasoindolin-5-yl)acetic Acid]",4 nM
3,"Cc1ccc(-c2c([C@H](OC(C)(C)C)C(=O)O)c(C(F)(F)F)c3c(c2C(F)(F)F)CN(C(=O)OCc2ccccc2)C3)cc1 [Example 2, (S)-2-(2-((benzyloxy)carbonyI)-6-(p-tolyl)-4,7-bis(trifluoromethyl)isoindolin-5-yl)-2-(tert-butoxy)acetic Acid]",4400 nM
4,Cc1ccc(-c2c([C@H](OC(C)(C)C)C(=O)O)c(C(F)(F)F)c3c(c2C(F)(F)F)CN(C(=O)c2cccc(F)c2)C3)cc1 [Example 3],5 nM
